Laboratory results from patent US12195452B2, “N-(4-(oxazol-5-yl)phenyl) chromane-3-carboxamide derivatives and related compounds as stimulators of the production of retinal precursor cells for the treatment of neuroretinal diseases” (ENDOGENA THERAPEUTICS, INC., priority 2018, dated 2025).

Each molecule was assayed on retinal precursor cells (assay: Sphere passaging and high-throughput drug screening: proliferation of retinal precursor cells from the ciliary epithelium, cell number after one week). Conditions: control experiment (absence of a compound) = 100; cells grown for one week.
Type: cell-based, mammalian
Procedure: Kynurenic Acid (0.2 mg/mL), trypsin (1.33 mg/mL), and hyaluronidase (0.67 mg/mL) were weighed out and dissolved in high magnesium/low calcium artificial cerebral spinal fluid (aCSF) at 37° C. Fibroblast growth factor 2 (FGF2; 10 ng/mL) and heparin (2 μg/mL) were added to 100 mL of serum-free media (SFM). Ovomucoid trypsin inhibitor (1 mg/mL) was dissolved in warm SFM and sterile filtered ([…]).
A dissecting microscope, cold light source, and sterile surgical instruments were set up inside of a sterile biological safety cabinet (BSC). Mammalian eyes were enucleated and placed in a petri dish containing cold, sterile aCSF. Under the dissecting microscope, hair, connective tissue, and the dorsal and ventral oblique muscles were cleared from the scleral/corneal border with two sets of forceps. Next, curved or angled micro-dissecting scissors were used to cleave any remaining extraocular muscle tissue, the optic nerve, and cut the eyeball into symmetrical halves; beginning and finishing the cut from the hole left by the optic nerve. Using two sets of forceps to grasp the cornea, the two eye halves were peeled apart. The lens, optic nerve, and vitreous were separated from the eye shells and the eye shells were transferred into a new petri dish (also containing cold, sterile aCSF). To isolate the ciliary epithelium (CE), eye shells were oriented with the cornea on the right and retinal pigmented epithelium (RPE) on the left. A pair of straight forceps were used to pin down the eye shell on the RPE side while a scalpel blade was inserted between the CE and the iris, using pressure to slice the iris/cornea side off from the rest of the shell. Next, the scalpel was run along the border between the CE and the RPE to obtain the CE isolated as a thin strip of tissue. The CE strips were then transferred to a 35 mm dish containing 2 mL of dispase solution (Sigma; T1005) and incubated for 10 minutes at 37° C. Next, the strips were transferred from dispase into a 35 mm dish containing 2 mL of sterile filtered kynurenic acid, trypsin and hyaluronidase solution and incubated at 37° C. for 10 minutes. After incubation, the dish was returned to the dissecting scope, and the CE strips were pinned down with straight, non-serrated forceps, while non-serrated curved forceps were used to scrape the CE off from the underlying sclera. The bare scleral strips were then discarded, such that only the CE cells remained in the enzyme solution. Using a fire-polished, cotton-plugged glass pipette, the cells and enzyme solution were transferred to a 15 mL tube and triturated approximately 45 times to break apart the tissue. The 15 mL tube/cell suspension was centrifuged for 5 minutes at 1500 rpm. The supernatant was gently aspirated from the resulting pellet using a fire-polished, cotton-plugged glass pipette and 2 mL of trypsin inhibitor solution was added to the pellet. Using a small borehole, fire-polished, cotton-plugged glass pipette, the sample was triturated approximately 45 times until it was a single-cell suspension. The 15 mL tube/cell suspension was centrifuged for 5 minutes at 1500 rpm. The supernatant was gently aspirated from the resulting pellet and 1-2 mL of SFM with FGF2 and heparin (plating media) was added. The cells and media were mixed to ensure a uniform cell suspension and a 10 uL sample was taken and cell density was determined. The cells were then seeded and cultured at 10c/μL in culture-treated plates or flasks. After one week, roughly 1 in 500 cells proliferated to form free-floating, clonal spheres greater than 80 μm in diameter.
Human-derived spheres were passaged using the kynurenic acid, trypsin, hyaluronidase enzyme solution with the addition of collagenase I (0.5 mg/mL), collagenase II (0.5 mg/mL) and elastase (0.1 mg/mL). Mouse-derived spheres were passaged using hyaluronidase (0.67 mg/mL), collagenase I (0.5 mg/mL), and collagenase II (0.5 mg/mL) dissolved in Accustase solution (Sigma; SCR005). […]
In the case of `O=C(Nc1ccc(-c2cnco2)c(Cl)c1)C1Cc2ccccc2C1` (racemic) [Compound 36, N-(3-chloro-4-(oxazol-5-yl)phenyl)-2,3-dihydro-1H-indene-2-carboxamide], the “Cell proliferation within one week [%]” value is reported as 124%. With `O=C(Nc1ccc(-c2cnco2)c(Cl)c1)C1COc2cc(F)ccc2C1` (racemic) [Compound 37, N-(3-chloro-4-(oxazol-5-yl)phenyl)-7-fluorochromane-3-carboxamide] the “Cell proliferation within one week [%]” value was 158%. `O=C(Nc1ccc(-c2cnco2)c(Cl)c1)C1COc2ccc(Cl)cc2C1` (racemic) [Compound 38, 6-chloro-N-(3-chloro-4-(oxazol-5-yl)phenyl)chromane-3-carboxamide] was tested, and the “Cell proliferation within one week [%]” value was 122%. `O=C(Nc1ccc(-c2cnco2)c(Cl)c1)C1COc2c(F)cc(F)cc2C1` (racemic) [Compound 39, N-(3-chloro-4-(oxazol-5-yl)phenyl)-6,8-difluorochromane-3-carboxamide] was tested, and the “Cell proliferation within one week [%]” value was 132%. `COc1cccc2c1CC(C(=O)Nc1ccc(-c3cnco3)c(Cl)c1)CO2` (racemic) [Compound 40, N-(3-chloro-4-(oxazol-5-yl)phenyl)-5-methoxychromane-3-carboxamide] was tested, and the “Cell proliferation within one week [%]” value was 107%. In the case of `O=C(Nc1ccc(-c2cnco2)c(Cl)c1)C1COc2ccccc2O1` (racemic) [Compound 41, N-(3-chloro-4-(oxazol-5-yl)phenyl)-2,3-dihydrobenzo[b][1,4]dioxine-2-carboxamide], the “Cell proliferation within one week [%]” value is reported as 114%. For `O=C(Nc1ccc(-c2cnco2)c(Cl)c1)C1COc2ccccc2C1` (single isomer, unassigned; (-)) [Compound 21, (−)-N-(3-chloro-4-(1,3-oxazol-5-yl)phenyl)chromane-3-carboxamide], the “Cell proliferation within one week [%]” value was 126%. For `Cc1cc(NC(=O)C2COc3ccccc3C2)ccc1-c1cnco1` (stereo not drawn) [Compound 25, N-(3-methyl-4-(oxazol-5-yl)phenyl)chromane-3-carboxamide], the “Cell proliferation within one week [%]” value was 120%. `O=C(Nc1ccc(-c2cnco2)c(Cl)c1)C1COc2ccc(F)cc2C1` (stereo not drawn) [Compound 42, N-(3-chloro-4-(oxazol-5-yl)phenyl)-6-fluorochromane-3-carboxamide] was tested, and the “Cell proliferation within one week [%]” value was 124%. In the case of “N-(2-(difluoromethoxy)-4-(oxazol-5-yl)phenyl)chroman-3-carboxamide [Compound 26]”, the “Cell proliferation within one week [%]” value is reported as 138%. With “N-(2-(difluoromethoxy)-4-(oxazol-5-yl)phenyl)chroman-3-carboxamide [Compound 27]” the “Cell proliferation within one week [%]” value was 106%.

Same assay, conditions: within one week, over control
`O=C(Nc1ccc(-c2cnco2)c(Cl)c1)C1COc2ccc(Cl)cc2C1` (racemic) [Compound 38, 6-chloro-N-(3-chloro-4-(oxazol-5-yl)phenyl)chromane-3-carboxamide] was tested, and the “increase of cell proliferation” value was 58%.
